Experimental findings from US9556143B2, “Metalloenzyme inhibitor compounds” (Viamet Pharmaceuticals, Inc., priority 2011, dated 2017) are described below.

Experiment [1] concerns Septoria tritici (ATCC 26517). The experiment is described as follows: Minimum Inhibitory Concentration (MIC) (Septoria tritici), CLSI-based microdilution. Type of experiment: cell-based. To be noted: Zymoseptoria tritici, ATCC26517, 168 h, MIC class; 50% reduction in growth of S. tritici; 7 days at 22 °C; read-out: Septoria Rating. As for the experimental part: C. Minimum Inhibitory Concentration (MIC) (Septoria tritici) Compounds of the present disclosure were assessed for their ability to inhibit the growth of a common strain of the fungal plant pathogen Septoria tritici (ATCC 26517) using a procedure based on a Clinical and Laboratory Standards Institute (CLSI) microdilution assay protocol for filamentous fungi. Stock solutions of the test compounds and standards were prepared in DMSO at 6400 μg/mL. Each stock solution was used to prepare a 2-fold dilution series ranging from 16 to 0.016 μg/mL (total of 11 compound concentrations) in RPMI-1640 (Roswell Park Memorial Institute) medium containing 3-(N-morpholino)propanesulfonic acid (MOPS) buffer and 2% DMSO. A 100 μL aliquot of the dilutions was added to columns 1 (16 μg/mL compound) through 11 (0.016 μg/mL compound) of a 96-well microtiter plate. This format was replicated in a second row of the microtiter plate. Thus, each microtiter plate could include 11 concentrations of four test or control compounds replicated twice. A 100 μL aliquot of RPMI-1640/MOPS/2% DMSO medium was added to column 12 (no compound control) of the microtiter plate. A fresh culture of S. tritici was used to prepare a solution of approximately 5×10^4 colony-forming units per milliliter (cfu/mL) in RPMI/MOPS medium without DMSO. A 100 μL aliquot of this solution was added to all 96 wells in the microtiter plate. […]
(In general: Dilution methods test growth across graded concentrations, often in twofold steps.)

Experiment [2] has as its system Puccinia recondita tritici = Puccinia triticina (PUCCRT). Put plainly: Fungicidal activity vs. wheat leaf rust. Type of experiment: in vivo, Puccinia recondita tritici on wheat (variety Yuma). To be noted: % disease control @ 50 ppm, wheat seedlings sprayed, inoculated the following day, severity evaluated 7-9 days later, read-out: Puccinia Rating. An excerpt:
D. Evaluation of Fungicidal Activity Vs. Leaf Rust (Causal Agent Puccinia recondita tritici=Puccinia triticina; Bayer code PUCCRT). […] Each pot contained 3-8 seedlings. These plants were sprayed until wet with the formulated test compounds. The compounds were formulated at 50 ppm in 10 vol. % acetone plus 90 vol. % Triton X water (deionized water 99.99 wt %+0.01 wt % Triton X100), giving a “formulated test compound.” Formulated test compounds were applied to plants using a turn table sprayer fitted with two opposing air atomization nozzles which delivered approximately 1500 L/ha of spray volume. On the following day, the leaves were inoculated with an aqueous spore suspension of Puccinia recondita tritici and the plants were kept in high humidity overnight to permit spores to germinate and infect the leaf. The plants were then transferred to a greenhouse until disease developed on untreated control plants. Disease severity was evaluated 7-9 days later, depending on the speed of disease development. In each case of Table 3, the Puccinia rating scale is as follows: […]

Consider `OC(Cn1cnnn1)(c1ccc(F)cc1F)C(F)(F)c1ccc(-c2ccc(Cl)nc2)cn1` (stereo not shown) [Compound 30, 1-(6′-Chloro-[3,3′-bipyridin]-6-yl)-2-(2,4-difluorophenyl)-1,1-difluoro-3-(1H-tetrazol-1-yl)propan-2-ol], for which, in experiment [1], the MIC is not above 0.5 µg/mL. For the same compound, the pest or weed control at 50 ppm in experiment [2] was 80 to 100%.

With `OC(Cn1cnnn1)(c1ccc(F)cc1F)C(F)(F)c1ccc(Cc2ccc(C(F)(F)F)cc2)cn1` (stereo not shown) [Compound 73, 2-(2,4-Difluorophenyl)-1,1-difluoro-3-(1H-tetrazol-1-yl)-1-(5-(4-(trifluoromethyl)benzyl)pyridin-2-yl)propan-2-ol], the pest or weed control at 50 ppm in experiment [2] fell in the range of 80 to 100%.

`OC(Cn1cnnn1)(c1ccc(F)cc1F)C(F)(F)c1ccc(Cc2ccccc2)cn1` (stereo not shown) [Compound 75, 1-(5-Benzylpyridin-2-yl)-2-(2,4-difluorophenyl)-1,1-difluoro-3-(1H-tetrazol-1-yl)propan-2-ol]: the pest or weed control at 50 ppm in experiment [2] was 80 to 100%.

On to `OC(Cn1cnnn1)(c1ccc(F)cc1F)C(F)(F)c1ccc(Cc2ccc(OC(F)(F)F)cc2)cn1` (stereo not shown) [Compound 76, 2-(2,4-Difluorophenyl)-1,1-difluoro-3-(1H-tetrazol-1-yl)-1-(5-(4-(trifluoromethoxy)benzyl)pyridin-2-yl)propan-2-ol], for which the pest or weed control at 50 ppm in experiment [2] was in the range of 80 to 100%.

`OC(Cn1cnnn1)(c1ccc(F)cc1F)C(F)(F)c1ccc(Cc2ccc(Cl)cc2)cn1` (stereo not shown) [Compound 77, 1-(5-(4-Chlorobenzyl)pyridin-2-yl)-2-(2,4-difluorophenyl)-1,1-difluoro-3-(1H-tetrazol-1-yl)propan-2-ol]: in experiment [2], the pest or weed control at 50 ppm was in the range of 80 to 100%.

For the compound `N#Cc1ccc(OCc2ccc(C(F)(F)C(O)(Cn3cnnn3)c3ccc(F)cc3F)nc2)cc1` (stereo not shown) [Compound 79, 4-((6-(2-(2,4-Difluorophenyl)-1,1-difluoro-2-hydroxy-3-(1H-tetrazol-1-yl)propyl)pyridin-3-yl)methoxy)benzonitrile], in experiment [2], the pest or weed control at 50 ppm fell in the range of 80 to 100%.

Turning to `OC(Cc1cnco1)(c1ccc(F)cc1F)C(F)(F)c1ccc(Br)cn1` (stereo not shown) [Compound 83, 1-(5-Bromopyridin-2-yl)-2-(2,4-difluorophenyl)-1,1-difluoro-3-(oxazol-5-yl)propan-2-ol], the pest or weed control at 50 ppm in experiment [2] was 80 to 100%.

For `N#Cc1ccc(OCc2ccc(C(F)(F)C(O)(Cn3cnnn3)c3ccc(F)cc3F)nc2)c(F)c1` (stereo not shown) [Compound 88, 4-((6-(2-(2,4-difluorophenyl)-1,1-difluoro-2-hydroxy-3-(1H-tetrazol-1-yl)propyl)pyridin-3-yl)methoxy)-3-fluorobenzonitrile], in experiment [2], the pest or weed control at 50 ppm was in the range of 80 to 100%.

With `N#Cc1cccc(OCc2ccc(C(F)(F)C(O)(Cn3cnnn3)c3ccc(F)cc3F)nc2)c1F` (stereo not shown) [Compound 89, 3-((6-(2-(2,4-difluorophenyl)-1,1-difluoro-2-hydroxy-3-(1H-tetrazol-1-yl)propyl)pyridin-3-yl)methoxy)-2-fluorobenzonitrile], the pest or weed control at 50 ppm in experiment [2] lay within 80 to 100%.

Take `N#Cc1ccc(SCc2ccc(C(F)(F)C(O)(Cn3cnnn3)c3ccc(F)cc3F)nc2)c(F)c1` (stereo not shown) [Compound 90, 4-(((6-(2-(2,4-difluorophenyl)-1,1-difluoro-2-hydroxy-3-(1H-tetrazol-1-yl)propyl)pyridin-3-yl)methyl)thio)-3-fluorobenzonitrile]: the pest or weed control at 50 ppm in experiment [2] lay in the range of 40 to 59%.

As to `OC(Cn1cnnn1)(c1ccc(F)cc1F)C(F)(F)c1ccc(COC(F)F)cn1` (stereo not shown) [Compound 92, 1-(5-((difluoromethoxy)methyl)pyridin-2-yl)-2-(2,4-difluorophenyl)-1,1-difluoro-3-(1H-tetrazol-1-yl)propan-2-ol], the pest or weed control at 50 ppm in experiment [2] fell in the range of 80 to 100%.

Consider `OC(Cn1cnnn1)(c1ccc(F)cc1F)C(F)(F)c1ccc(-c2ccc(Cl)cn2)cn1` (stereo not shown) [Compound 93, 1-(5-chloro-[2,3′-bipyridin]-6′-yl)-2-(2,4-difluorophenyl)-1,1-difluoro-3-(1H-tetrazol-1-yl)propan-2-ol], for which, in experiment [2], the pest or weed control at 50 ppm is 80 to 100%.

`OC(Cn1cnnn1)(c1ccc(F)cc1F)C(F)(F)c1ccc(-c2ccc(C(F)(F)F)cn2)cn1` (stereo not shown) [Compound 94, 2-(2,4-difluorophenyl)-1,1-difluoro-3-(1H-tetrazol-1-yl)-1-(5-(trifluoromethyl)-[2,3′-bipyridin]-6′-yl)propan-2-ol]: the pest or weed control at 50 ppm in experiment [2] lay within 80 to 100%.

As to `N#Cc1ccc(-c2ccc(C(F)(F)C(O)(Cn3cnnn3)c3ccc(F)cc3F)nc2)nc1` (stereo not shown) [Compound 95, 6′-(2-(2,4-difluorophenyl)-1,1-difluoro-2-hydroxy-3-(1H-tetrazol-1-yl)propyl)-[2,3′-bipyridin]-5-carbonitrile], the pest or weed control at 50 ppm in experiment [2] was 80 to 100%.

With `OC(Cn1cnnn1)(c1ccc(F)cc1F)C(F)(F)c1ccc(-c2ccncc2)cn1` (stereo not shown) [Compound 96, 1-([3,4′-bipyridin]-6-yl)-2-(2,4-difluorophenyl)-1,1-difluoro-3-(1H-tetrazol-1-yl)propan-2-ol], in experiment [2], the pest or weed control at 50 ppm was 60 to 79%.

As to `N#Cc1ccc(OCc2ccc(C(F)(F)C(O)(Cn3cnnn3)c3ccc(F)cc3F)nc2)nc1` (stereo not shown) [Compound 98, 6-((6-(2-(2,4-difluorophenyl)-1,1-difluoro-2-hydroxy-3-(1H-tetrazol-1-yl)propyl)pyridin-3-yl)methoxy)nicotinonitrile], the pest or weed control at 50 ppm in experiment [2] was 80 to 100%.

As to `OC(Cn1cnnn1)(c1ccc(F)cc1F)C(F)(F)c1ccc(COc2ccc(C(F)(F)F)cn2)cn1` (stereo not shown) [Compound 99, 2-(2,4-difluorophenyl)-1,1-difluoro-3-(1H-tetrazol-1-yl)-1-(5-(((5-(trifluoromethyl)pyridin-2-yl)oxy)methyl)pyridin-2-yl)propan-2-ol], the pest or weed control at 50 ppm in experiment [2] was in the range of 80 to 100%.

In the case of `OC(Cn1cnnn1)(c1ccc(F)cc1F)C(F)(F)c1ccc(COc2ncc(C(F)(F)F)cc2Cl)cn1` (stereo not shown) [Compound 100, 1-(5-(((3-chloro-5-(trifluoromethyl)pyridin-2-yl)oxy)methyl)pyridin-2-yl)-2-(2,4-difluorophenyl)-1,1-difluoro-3-(1H-tetrazol-1-yl)propan-2-ol], the pest or weed control at 50 ppm in experiment [2] was in the range of 80 to 100%.

`OC(Cn1cnnn1)(c1ccc(F)cc1F)C(F)(F)c1ccc(C(F)(F)c2ccc(F)cc2)cn1` (stereo not shown) [Compound 101, 1-(5-(difluoro(4-fluorophenyl)methyl)pyridin-2-yl)-2-(2,4-difluorophenyl)-1,1-difluoro-3-(1H-tetrazol-1-yl)propan-2-ol]: the pest or weed control at 50 ppm in experiment [2] lay within 80 to 100%.

`OC(Cn1cnnn1)(c1ccc(F)cc1F)C(F)(F)c1ccc(C(F)(F)c2ccc(C(F)(F)F)cc2)cn1` (stereo not shown) [Compound 102, 1-(5-(difluoro(4-(trifluoromethyl)phenyl)methyl)pyridin-2-yl)-2-(2,4-difluorophenyl)-1,1-difluoro-3-(1H-tetrazol-1-yl)propan-2-ol]: in experiment [2], the pest or weed control at 50 ppm lay within 80 to 100%.

In the case of `N#Cc1ccc(C(F)(F)c2ccc(C(F)(F)C(O)(Cn3cnnn3)c3ccc(F)cc3F)nc2)cc1` (stereo not shown) [Compound 103, 4-((6-(2-(2,4-difluorophenyl)-1,1-difluoro-2-hydroxy-3-(1H-tetrazol-1-yl)propyl)pyridin-3-yl)difluoromethyl)benzonitrile], in experiment [2], the pest or weed control at 50 ppm lay in the range of 80 to 100%.
